Assay results reported in US20230130103A1, “TARGETED PHARMACOLOGICAL THERAPEUTICS IN UVEAL MELANOMA” (Washington University, priority 2017, published 2023).
Starred links: 1 amine or outer side, 2 acyl side, 3 side chain; linkers in the order of their positions; H or OH if unused. Positions of bridges follow the written chain, without caps; N, C: chain ends. Non-standard residues stand in square brackets, D forms with d. Residues, ends and D or L forms follow the SMILES beside them. *: point of attachment. Leu(3R-OH,Nα-propionyl) = CCC(=O)N[C@H](C(=O)*)[C@H](O)C(C)C; X1 = CC(C)[C@@H](O[*:3])[C@H](N[*:1])C(=O)[*:2]; X2 = CC(C)[C@H](O[*:3])[C@@H](N[*:1])C(=O)[*:2]; NMeaThr = CN[C@H](C(=O)O)[C@H](C)O; dPhLac = O=C(O)[C@H](O)Cc1ccccc1; NMeA = CN[C@@H](C)C(=O)O; NMeDha = C=C(NC)C(=O)O

Experiments:
Mel202 UM cells = assay: UM cell viability, water-soluble tetrazolium salt assay; conditions: Homo sapiens, Mel202, read-out: EC50, inhibition of proliferation (viability)
Procedure: (§1) Cells were cultured at 37.0 in 5% CO2. […] Cell lines were grown in RPMI 1640 medium (Life Technologies, Carlsbad, Calif.) supplemented with 10% FBS and antibiotics. Cell viability was measured using a water-soluble tetrazolium salt, WTS-8 (Bimake, Houston, Tex.), following the manufacturer's protocol. Flow cytometry for analysis of cell proliferation and apoptosis was performed at the Siteman Cancer Center Flow Cytometry Core on a FACScan analyzer (BD Biosciences, San Diego Calif., USA) using a standard propidium iodide staining protocol as described previously (44).

Mel202 cells = assay: qPCR validation of FR target genes; format: cell-based, Human; conditions: FR-treated Mel202 cells; FIG. 10
Procedure: More important, 42% of genes in this cluster are known targets of the polycomb repressive complex 2 (PRC2) during differentiation from embryonic stem cells (FIG. 7D and Table 5), as indicated by gene set enrichment analysis.
92.1 UM cells were treated with 100 nM FR or vehicle (DMSO) in RPMI growth medium and collected after 1 and 3 d of treatment. RNA was isolated using the RNeasy Mini Kit (Qiagen) following the manufacturer's protocol and including the optional DNase I treatment step. RNA quality was assessed on a Bioanalyzer 2100 (Agilent Technologies, Santa Clara, Calif., USA). mRNA was extracted from total RNA using a Dynal mRNA Direct kit, fragmented and reverse transcribed to double stranded cDNA with random primers before addition of adapters for library preparation. Library preparation and HiSeq2500 sequencing were performed by the Washington University Genome Technology Access Center (gtac.wustl.edu). FastQ files were aligned to the transcriptome and the whole-genome with STAR. Biologic replicates were simultaneously analyzed by edgeR and Sailfish analyses of gene-level/exon-level features. […] Significant gene sets from GSEA analyses were combined such that genes associated with multiple related signatures were only counted once and each gene was assigned only to a single combined groupbased on the signature with the highest enrichment score for that gene. […]

OCM-1A cells = assay: UM cell viability, water-soluble tetrazolium salt assay; conditions: even at high concentration (10 μM)
Procedure: as §1

Gαi/q = target: T1, Gαi/q (Homo sapiens, UniProt P63096, K54R/C351G, form not given); format: cell-based; conditions: read-out: IC50, attenuation of cannabinoid type 1 receptor inhibition of forskolin-induced cAMP accumulation; via Gαi/q; Neuro2A cells, PTX-treated; FIG. 2C
T1 construct: other: via Gαi/q; the eight substituted residues copy Gαq (GNAQ) but are point changes, not a fused part of Gαq
T1 sequence (P63096 whole entry V50I/K54R/Y69F/V72L/K180P/V185I/T187Y/H188P/C351G, form open, the tested form may be a part): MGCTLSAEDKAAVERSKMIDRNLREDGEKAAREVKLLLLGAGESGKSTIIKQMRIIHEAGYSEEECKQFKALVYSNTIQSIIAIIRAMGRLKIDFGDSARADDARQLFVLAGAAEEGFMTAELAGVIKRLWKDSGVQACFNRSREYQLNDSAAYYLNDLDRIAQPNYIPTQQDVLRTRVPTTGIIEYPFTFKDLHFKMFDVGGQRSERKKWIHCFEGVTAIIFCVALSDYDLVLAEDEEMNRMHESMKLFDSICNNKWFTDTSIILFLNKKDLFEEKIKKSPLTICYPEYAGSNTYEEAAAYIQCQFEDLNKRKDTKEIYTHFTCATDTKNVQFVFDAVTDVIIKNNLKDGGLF

[1] = test system: BRAF(V600E)-driven OCM-1A cells; assay: IP1 accumulation in UM cells (IP-One kit); format: cell-based, Human; conditions: FIG. 3B
Source text: Inhibition of signaling by constitutively active Gαq in UM cultured cell lines was quantified by measuring intracellular inositol 1-phosphate (IP1), a metabolically stable product of inositol 1,4,5-trisphosphate produced by Gαq-stimulated phospholipase Cβ. FIG. 3A Basal IP1 levels in UM cell lines driven by constitutively active Gαq (92.1 and Mel202) and BRAF (OCM-1A). FIG. 3B Effects of FR on IP1 levels in 92.1, Mel202 and OCM-1A cells. *p<0.01.
A third UM cell line (OCM-1A) driven by constitutively active BRAF(V600E) served as a negative control. Signaling by Gαq-stimulated phospholipase Cβ was quantified based on levels of inositol monophosphate (IP1), a metabolically stable product of inositol 1,4,5-trisphosphate (IP3) produced by cleavage of phosphatidylinositol 4,5-bisphosphate (PIP2). […] FR reduced IP1 levels in Mel202 and 92.1 cells >50-fold (FIG. 3B), but had only modest effect (˜2-fold) on OCM-1A cells (FIG. 3B).
Accumulation of IP1 in UM cells was measured using the IP-One kit (CiSbio, Inc; catalog number 62IPAPEB) according to the supplier's instructions. 10,000 Mel 202 cells, 20,000 92.1 cells and 20,000 OCM 1A cells were seeded into white-bottom tissue culture grade 384-well plates. Following an overnight incubation, cells were treated with FR or DMSO and returned to the incubator. […] Plates were read in a Synergy H4 Hybred Reader (BioTek, Winooski, Vt., USA). […]

92.1 UM cells = assay: UM cell viability, water-soluble tetrazolium salt assay; conditions: Homo sapiens, read-out: EC50, inhibition of proliferation (viability)
Procedure: as §1

For `C=C1C(=O)N[C@@H](C)C(=O)N(C)[C@@H](C)C(=O)N[C@H]([C@@H](OC(=O)[C@@H](NC(=O)CC)[C@H](O)C(C)C)C(C)C)C(=O)N(C)[C@@H]([C@H](C)OC)C(=O)O[C@H](C(C)C)[C@H](NC(C)=O)C(=O)O[C@H](Cc2ccccc2)C(=O)N1C` [FR, [(1S)-1-[(3S,6R,9S,12S,18R,21S,22R)-21-acetamido-18-benzyl-3-[(1S)-1-methoxyethyl]-4,9,10,12,16-pentamethyl-15-methylidene-2,5,8,11,14,17,20-heptaoxo-22-propan-2-yl-1,19-dioxa-4,7,10,13,16-pentazacyclodocos-6-yl]-2-methylpropyl] (2S,3R)-3-hydroxy-4-methyl-2-(propanoylamino)pentanoate] (Ac-[X1][dPhLac][NMeDha]A[NMeA][X2](Leu(3R-OH,Nα-propionyl))[NMeaThr](Me); ester 1-C), the EC50 (Mel202 UM cells) was 6 nM, the “RNA-Seq downregulation results checked by quantitative RT-PCR” value (Mel202 cells) was “confirmed” and the effect on proliferation (OCM-1A cells) was “no effect”. For the same molecule, the IC50 (Gαi/q) was 25 nM, the “effect on IP1 levels” value [1] was about 2 fold and the EC50 (92.1 UM cells) was 2 nM.
